Tests used:
[1] = test system: RKO (RKOp27) human colon adenocarcinoma cells; assay: Alamar Blue cell viability assay, anti-proliferative/cytotoxic activity on proliferating RKOp27 cells; assay type: cell-based; settings: absence of Ponasterone A, 72 hours incubation, read-out: IC50 RKO p27 proliferating
Method in brief: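 IC50 values come from concentration-effect curves of Alamar Blue fluorescence (544/590 nm), relative to untreated controls set at 100%. Cells were RKOp27, seeded at 4000/well in DMEM with 10% FCS and exposed from 24 h post-seeding for 72 h (37 °C, 5% CO2) to semi-log dilutions, each run in quadruplicate.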

[2] = test system: RKO colon adenocarcinoma cells (RKOp27) arrested by expression of ectopic p27Kip1; assay: Alamar Blue cell viability assay on RKOp27 cells arrested by Ponasterone A-induced p27Kip1 (cell cycle specific mode of action); assay type: cell-based; settings: Homo sapiens, RKOp27, 72 h, cells arrested by p27Kip1 induced with 10 μM Ponasterone A, 72 hours incubation, read-out: IC50 RKO p27 arrested
Method in brief: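 Viability measured by Alamar Blue fluorescence (ex 544, em 590 nm) after 72 h, 37 °C compound exposure in quadruplicate, normalized to untreated cells as 100%. Cells were p27Kip1-arrested RKOp27, induced with 10 μM Ponasterone A at seeding; compound added 24 h later.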

Row | Structure (SMILES) | IC50 [1] [µM] | IC50 [2] [µM]
1 | CCOC(=O)N1CCc2c(sc(NC(=O)/C=C/c3ccccc3O)c2C#N)C1 [Example 95, 3-Cyano-2-[(E)-3-(2-hydroxy-phenyl)-allanoylamino]-4,7-dihydro-5H-thieno[2,3-c]pyridine-6-carboxylic acid ethyl ester] | ≤ 2 | ≥ 100
2 | CCOC(=O)N1CCc2c(sc(NC(=O)/C=C/c3cccc(OC)c3OCC)c2C#N)C1 [Example 96, 3-Cyano-2-[(E)-3-(2-ethoxy-3-methoxy-phenyl)-allanoylamino]-4,7-dihydro-5H-thieno[2,3-c]pyridine-6-carboxylic acid ethyl ester] | ≤ 2 | ≥ 100
3 | CCOC(=O)N1CCc2c(sc(NC(=O)/C=C/c3cccn3C)c2C#N)C1 [Example 97, 3-Cyano-2-[(E)-3-(1-methyl-1H-pyrrol-2-yl)-allanoylamino]-4,7-dihydro-5H-thieno[2,3-c]pyridine-6-carboxylic acid ethyl ester] | ≤ 2 | ≥ 100
4 | CCOC(=O)N1CCc2c(sc(NC(=O)/C=C/c3ccccc3OC(C)C)c2C#N)C1 [Example 98, 3-Cyano-2-[(E)-3-(2-isopropoxy-phenyl)-allanoylamino]-4,7-dihydro-5H-thieno[2,3-c]pyridine-6-carboxylic acid ethyl ester] | ≤ 2 | ≥ 100
5 | CCCOc1ccccc1/C=C/C(=O)Nc1sc2c(c1C#N)CCN(C(=O)OCC)C2 [Example 99, 3-Cyano-2-[(E)-3-(2-propoxy-phenyl)-allanoylamino]-4,7-dihydro-5H-thieno[2,3-c]pyridine-6-carboxylic acid ethyl ester] | ≤ 0.5 | ≥ 50
6 | CCOC(=O)N1CCc2c(sc(NC(=O)/C=C/c3ccccn3)c2C#N)C1 [Example 100, 3-Cyano-2-((E)-3-pyridin-2-yl-allanoylamino)-4,7-dihydro-5H-thieno[2,3-c]pyridine-6-carboxylic acid ethyl ester] | ≤ 2 | ≥ 100
7 | CCOC(=O)N1CCc2c(sc(NC(=O)/C=C/c3cc(OC)ccc3OC)c2C#N)C1 [Example 102, 3-Cyano-2-[(E)-3-(2,5-dimethoxy-phenyl)-allanoylamino]-4,7-dihydro-5H-thieno[2,3-c]pyridine-6-carboxylic acid ethyl ester] | ≤ 2 | ≥ 100
8 | CCOC(=O)N1CCc2c(sc(NC(=O)/C=C/c3ccc[nH]3)c2C#N)C1 [Example 103, 3-Cyano-2-((E)-3-1-H-pyrrol-2-yl-allanoylamino)-4,7-dihydro-5H-thieno[2,3-c]pyridine-6-carboxylic acid ethylester] | ≤ 2 | ≥ 100
9 | CCOC(=O)N1CCc2c(sc(NC(=O)/C=C/c3ccccc3Oc3ccccc3)c2C#N)C1 [Example 104, 3-Cyano-2-[(E)-3-(2-phenoxy-phenyl)-allanoylamino]-4,7-dihydro-5H-thieno[2,3-c]pyridine-6-carboxylic acid ethyl ester] | ≤ 2 | ≥ 100
10 | CCOC(=O)N1CCc2c(sc(NC(=O)/C=C/c3c(OC)cccc3OC)c2C#N)C1 [Example 108, 3-Cyano-2-[(E)-3-(2,6-dimethoxy-phenyl)-allanoylamino]-4,7-dihydro-5H-thieno[2,3-c]pyridine-6-carboxylic acid ethyl ester] | ≤ 2 | ≥ 100
11 | CCOC(=O)N1CCc2c(sc(NC(=O)/C=C/c3cccc4c3OCO4)c2C#N)C1 [Example 111, 2-((E)-3-Benzo[1,3]dioxol-4-yl-allanoylamino)-3-cyano-4,7-dihydro-5H-thieno[2,3-c]pyridine-6-carboxylic acid ethyl ester] | ≤ 2 | ≥ 100
12 | N#Cc1c(NC(=O)/C=C/c2ccccc2)sc2c1CCN(C(=O)OCCN1CCOCC1)C2 [Example 112, 3-Cyano-2-((E)-3-phenyl-allanoylamino)-4,7-dihydro-5H-thieno[2,3-c]pyridine-6-carboxylic acid 2-morpholin-4-yl-ethyl ester] | ≤ 2 | ≥ 100
13 | CN(C)CCOC(=O)N1CCc2c(sc(NC(=O)/C=C/c3ccccc3)c2C#N)C1 [Example 113, 3-Cyano-2-((E)-3-phenyl-allanoylamino)-4,7-dihydro-5H-thieno[2,3-c]pyridine-6-carboxylic acid 2-dimethylamino-ethyl ester] | ≤ 0.5 | ≥ 50
14 | N#Cc1c(NC(=O)/C=C/c2ccccc2)sc2c1CCN(C(=O)OCCN1CCCC1)C2 [Example 114] | ≤ 2 | ≥ 100
15 | N#Cc1c(NC(=O)/C=C/c2ccccc2)sc2c1CCN(C(=O)OCCc1ccccn1)C2 [Example 116, 3-Cyano-2-((E)-3-phenyl-allanoylamino)-4,7-dihydro-5H-thieno[2,3-c]pyridine-6-carboxylic acid 2-pyridin-2-yl-ethyl ester] | ≤ 2 | ≥ 100
16 | N#Cc1c(NC(=O)/C=C/c2ccccc2)sc2c1CCN(C(=O)OCCCc1ccncc1)C2 [Example 117, 3-Cyano-2-((E)-3-phenyl-allanoylamino)-4,7-dihydro-5H-thieno[2,3-c]pyridine-6-carboxylic acid 3-pyridin-4-yl-propyl ester] | ≤ 2 | ≥ 100
17 | COCCOC(=O)N1CCc2c(sc(NC(=O)/C=C/c3ccccc3)c2C#N)C1 [Example 118, 3-Cyano-2-((E)-3-phenyl-allanoylamino)-4,7-dihydro-5H-thieno[2,3-c]pyridine-6-carboxylic acid 2-methoxy-ethyl ester] | ≤ 2 | ≥ 100
18 | N#Cc1c(NC(=O)/C=C/c2ccccc2)sc2c1CCN(C(=O)OCCCN1CCOCC1)C2 [Example 120, 3-Cyano-2-((E)-3-phenyl-allanoylamino)-4,7-dihydro-5H-thieno[2,3-c]pyridine-6-carboxylic acid 3-morpholin-4-yl-propyl ester] | ≤ 2 | ≥ 100
19 | Cc1ncc([N+](=O)[O-])n1CCOC(=O)N1CCc2c(sc(NC(=O)/C=C/c3ccccc3)c2C#N)C1 [Example 122, 3-Cyano-2-((E)-3-phenyl-allanoylamino)-4,7-dihydro-5H-thieno[2,3-c]pyridine-6-carboxylic acid 2-(2-methyl-5-nitro-imidazol-1-yl)-ethyl ester] | ≤ 2 | ≥ 100
20 | N#Cc1c(NC(=O)/C=C/c2ccccc2)sc2c1CCN(C(=O)OCCCc1ccccn1)C2 [Example 124, 3-Cyano-2-((E)-3-phenyl-allanoylamino)-4,7-dihydro-5H-thieno[2,3-c]pyridin-6-carboxylic acid 3-pyridin-2-yl-propyl ester] | ≤ 0.5 | ≥ 50
21 | N#Cc1c(NC(=O)/C=C/c2ccccc2)sc2c1CCN(C(=O)OCCCc1cccnc1)C2 [Example 125, 3-Cyano-2-((E)-3-phenyl-allanoylamino)-4,7-dihydro-5H-thieno[2,3-c]pyridine-6-carboxylic acid 3-pyridin-3-yl-propyl ester] | ≤ 2 | ≥ 100
22 | N#Cc1c(NC(=O)/C=C/c2ccccc2)sc2c1CCN(C(=O)OCCc1ccncc1)C2 [Example 126, 3-Cyano-2-((E)-3-phenyl-allanoylamino)-4,7-dihydro-5H-thieno[2,3-c]pyridine-6-carboxylic acid 2-pyridin-4-yl-ethyl ester] | ≤ 2 | ≥ 100
23 | CC1(C)OCC(COC(=O)N2CCc3c(sc(NC(=O)/C=C/c4ccccc4)c3C#N)C2)O1 (stereo not shown) [Example 127, 3-Cyano-2-((E)-3-phenyl-allanoylamino)-4,7-dihydro-5H-thieno[2,3-c]pyridine-6-carboxylic acid 2,2-dimethyl-[1,3]dioxolan-4-ylmethyl ester] | ≤ 2 | ≥ 100
24 | N#Cc1c(NC(=O)/C=C/c2ccccc2)sc2c1CCN(C(=O)OCC(O)CO)C2 (stereo not shown) [Example 128, 3-Cyano-2-((E)-3-phenyl-allanoylamino)-4,7-dihydro-5H-thieno[2,3-c]pyridine-6-carboxylic acid 2,3-dihydroxy-propyl ester] | ≤ 2 | ≥ 100
25 | COCCOCCOC(=O)N1CCc2c(sc(NC(=O)/C=C/c3ccccc3)c2C#N)C1 [Example 129, 3-Cyano-2-((E)-3-phenyl-allanoylamino)-4,7-dihydro-5H-thieno[2,3-c]pyridine-6-carboxylic acid 2-(2-methoxy-ethoxy)-ethyl ester] | ≤ 2 | ≥ 100
26 | COC(=O)COC(=O)N1CCc2c(sc(NC(=O)/C=C/c3ccccc3)c2C#N)C1 [Example 133, 3-Cyano-2-((E)-3-phenyl-allanoylamino)-4,7-dihydro-5H-thieno[2,3-c]pyridine-6-carboxylic acid methoxycarbonylmethyl ester] | ≤ 2 | ≥ 100
27 | CC(=O)NCCOC(=O)N1CCc2c(sc(NC(=O)/C=C/c3ccccc3)c2C#N)C1 [Example 134, 3-Cyano-2-((E)-3-phenyl-allanoylamino)-4,7-dihydro-5H-thieno[2,3-c]pyridine-6-carboxylic acid 2-acetylamino-ethyl ester] | ≤ 2 | ≥ 100
28 | N#Cc1c(NC(=O)/C=C/c2ccccc2)sc2c1CCN(C(=O)OCCO)C2 [Example 135, 3-Cyano-2-((E)-3-phenyl-allanoylamino)-4,7-dihydro-5H-thieno[2,3-c]pyridine-6-carboxylic acid 2-hydroxy-ethyl ester] | ≤ 2 | ≥ 100
29 | N#Cc1c(NC(=O)/C=C/c2ccccc2)sc2c1CCN(C(=O)OCCn1ccnc1)C2 [Example 136, 3-Cyano-2-((E)-3-phenyl-allanoylamino)-4,7-dihydro-5H-thieno[2,3-c]pyridine-6-carboxylic acid 2-imidazol-1-yl-ethyl ester] | ≤ 2 | ≥ 100

From patent publication US7723523B2, “Tetrahydropyridothiophenes” (4SC AG, priority 2004, dated 2010)
